Data reported in ChEMBL document CHEMBL1157013, “Novel phospholipid analogues of pan-PPAR activator tetradecylthioacetic acid are more PPAR alpha selective” (Bioorg Med Chem Lett, 2010).
Calls of active or inactive are those of the source.

Tests used:
Type in all cases: cell-based
[1] = molecular target: T1, Peroxisome proliferator-activated receptor delta (Homo sapiens) (UniProt Q03181); assay: Activation of PPARdelta expressed in human MCF7 cells at 30 uM by luciferase reporter gene assay
T1 sequence (whole entry): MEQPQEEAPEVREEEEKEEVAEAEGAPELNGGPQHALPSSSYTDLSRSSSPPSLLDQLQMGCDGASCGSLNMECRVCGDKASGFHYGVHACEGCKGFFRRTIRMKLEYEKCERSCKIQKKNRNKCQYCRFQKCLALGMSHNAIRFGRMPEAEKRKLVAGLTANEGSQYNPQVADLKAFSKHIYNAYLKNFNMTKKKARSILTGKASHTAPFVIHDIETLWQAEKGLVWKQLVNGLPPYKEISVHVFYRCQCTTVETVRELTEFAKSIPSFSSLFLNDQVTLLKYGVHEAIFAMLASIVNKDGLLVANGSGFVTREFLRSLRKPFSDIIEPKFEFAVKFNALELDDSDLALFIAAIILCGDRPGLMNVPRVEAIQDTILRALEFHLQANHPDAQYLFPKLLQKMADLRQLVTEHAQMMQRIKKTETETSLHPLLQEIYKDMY

[2] = molecular target: T2, Peroxisome proliferator-activated receptor gamma (Homo sapiens) (UniProt P37231); assay: Activation of PPARgamma expressed in human MCF7 cells at 30 uM by luciferase reporter gene assay
T2 sequence (whole entry): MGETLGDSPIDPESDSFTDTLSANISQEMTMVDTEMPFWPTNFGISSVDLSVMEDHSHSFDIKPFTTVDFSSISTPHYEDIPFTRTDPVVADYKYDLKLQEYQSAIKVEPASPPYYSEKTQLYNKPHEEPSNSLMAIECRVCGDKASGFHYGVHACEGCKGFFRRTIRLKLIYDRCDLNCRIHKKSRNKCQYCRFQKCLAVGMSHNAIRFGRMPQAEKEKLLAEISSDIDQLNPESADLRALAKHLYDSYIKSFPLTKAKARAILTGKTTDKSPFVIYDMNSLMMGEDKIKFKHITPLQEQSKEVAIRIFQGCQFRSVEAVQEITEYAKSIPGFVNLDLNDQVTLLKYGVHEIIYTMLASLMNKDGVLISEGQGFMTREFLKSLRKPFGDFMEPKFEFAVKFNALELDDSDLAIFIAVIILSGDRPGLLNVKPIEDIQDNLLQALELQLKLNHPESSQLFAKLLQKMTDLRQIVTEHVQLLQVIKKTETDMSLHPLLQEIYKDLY

[3] = molecular target: T3, Peroxisome proliferator-activated receptor alpha (Homo sapiens) (UniProt Q07869); assay: Activation of PPARalpha expressed in human MCF7 cells at 30 uM by luciferase reporter gene assay
T3 sequence (whole entry): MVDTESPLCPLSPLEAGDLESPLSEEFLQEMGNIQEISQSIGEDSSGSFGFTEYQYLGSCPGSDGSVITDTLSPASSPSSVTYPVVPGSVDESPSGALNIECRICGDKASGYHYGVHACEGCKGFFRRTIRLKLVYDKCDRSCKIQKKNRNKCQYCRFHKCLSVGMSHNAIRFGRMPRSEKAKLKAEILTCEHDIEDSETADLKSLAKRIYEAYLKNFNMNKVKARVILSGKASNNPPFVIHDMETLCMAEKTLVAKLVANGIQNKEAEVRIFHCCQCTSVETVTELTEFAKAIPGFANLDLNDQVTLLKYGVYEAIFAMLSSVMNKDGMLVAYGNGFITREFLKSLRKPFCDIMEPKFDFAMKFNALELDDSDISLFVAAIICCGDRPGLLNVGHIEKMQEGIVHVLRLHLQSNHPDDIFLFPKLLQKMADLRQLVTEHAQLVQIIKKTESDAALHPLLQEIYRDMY

[4] = molecular target: T1, Peroxisome proliferator-activated receptor delta (Homo sapiens); assay: Activation of PPARdelta expressed in human MCF7 cells at 10 uM by luciferase reporter gene assay
[5] = molecular target: T3, Peroxisome proliferator-activated receptor alpha (Homo sapiens); assay: Activation of PPARalpha expressed in human MCF7 cells at 10 uM by luciferase reporter gene assay
[6] = molecular target: T2, Peroxisome proliferator-activated receptor gamma (Homo sapiens); assay: Activation of PPARgamma expressed in human MCF7 cells at 10 uM by luciferase reporter gene assay

Measured: Activity

CCCCCCCCCCCCCCSCC(=O)O
active: [1] | [2] | [3]

CCCCCCCCCCCCCCSCC(=O)OC[C@H](COP(=O)(O)OCC(O)CO)OC(=O)CSCCCCCCCCCCCCCC (stereo not given in full)
active: all assays above

CCCCCCCCCCCCCCSCC(=O)OC[C@@H](O)COP(=O)([O-])OCC[N+](C)(C)C
active: all assays above
